Calls of active or inactive are those of the source.
Experiments:
[1] = biological target: Transitional endoplasmic reticulum ATPase (Homo sapiens, UniProt P55072, C522A); test: C522A mutant p97 ATPase inhibitors, dose response, counter-screen for p97 inhibitor project, biochemical, luminescence (AID 1544)
[2] = Trypanosoma cruzi growth suppression in host cells – NIH3T3 host cells, beta-gal luminescence, confirmation (AID 2044); format: functional, cell-based;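 note: intracellular parasites grown in NIH/3T3 mouse fibroblasts as host cells; luminescent beta-galactosidase reporter signal from transgenic T. cruzi replicating inside host cells; inhibitors lower the luminescence signal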
[3] = NIH3T3 cell viability loss – ATP luminescence, mouse fibroblasts, counter-screen, dose response (AID 2010); format: functional, cell-based;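 note: cells exposed to compound for about 90 hours before reading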
[4] = biological target: Transitional endoplasmic reticulum ATPase (Homo sapiens, UniProt P55072); test: p97 ATPase inhibitors, dose response, biochemical (AID 1534)
Sequence of Transitional endoplasmic reticulum ATPase (Homo sapiens, UniProt P55072) (P55072 whole entry): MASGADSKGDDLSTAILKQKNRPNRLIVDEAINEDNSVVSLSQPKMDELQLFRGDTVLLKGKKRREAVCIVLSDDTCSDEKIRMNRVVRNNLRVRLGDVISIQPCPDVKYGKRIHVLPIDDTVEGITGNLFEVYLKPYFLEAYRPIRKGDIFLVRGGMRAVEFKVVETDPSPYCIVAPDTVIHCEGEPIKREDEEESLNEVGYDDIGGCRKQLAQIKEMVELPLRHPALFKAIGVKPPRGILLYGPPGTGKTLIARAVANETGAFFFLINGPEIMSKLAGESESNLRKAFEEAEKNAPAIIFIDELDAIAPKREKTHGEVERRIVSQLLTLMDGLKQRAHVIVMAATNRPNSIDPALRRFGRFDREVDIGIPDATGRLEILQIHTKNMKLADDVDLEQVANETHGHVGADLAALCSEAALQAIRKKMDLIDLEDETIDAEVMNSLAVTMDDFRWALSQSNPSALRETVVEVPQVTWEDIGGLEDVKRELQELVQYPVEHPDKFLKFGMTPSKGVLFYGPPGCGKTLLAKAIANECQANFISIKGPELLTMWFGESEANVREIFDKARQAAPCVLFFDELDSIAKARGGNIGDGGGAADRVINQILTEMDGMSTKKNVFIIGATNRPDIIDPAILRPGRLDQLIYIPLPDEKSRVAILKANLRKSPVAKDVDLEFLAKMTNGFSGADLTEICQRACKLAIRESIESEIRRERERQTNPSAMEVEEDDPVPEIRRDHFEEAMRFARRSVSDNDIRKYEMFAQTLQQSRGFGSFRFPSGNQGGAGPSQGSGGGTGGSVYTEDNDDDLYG

[5] = cells; format: functional
[6] = biological target: Heat shock protein HSP 90-alpha (Homo sapiens, UniProt P07900); format: functional, organism-based
[7] = biological target: Mitochondrial peptide methionine sulfoxide reductase (Bos taurus, UniProt P54149); test: Absorbance-based biochemical high throughput dose response assay for activators of Methionine sulfoxide reductase A (MsrA).; format: functional
Sequence of Mitochondrial peptide methionine sulfoxide reductase (P54149 whole entry): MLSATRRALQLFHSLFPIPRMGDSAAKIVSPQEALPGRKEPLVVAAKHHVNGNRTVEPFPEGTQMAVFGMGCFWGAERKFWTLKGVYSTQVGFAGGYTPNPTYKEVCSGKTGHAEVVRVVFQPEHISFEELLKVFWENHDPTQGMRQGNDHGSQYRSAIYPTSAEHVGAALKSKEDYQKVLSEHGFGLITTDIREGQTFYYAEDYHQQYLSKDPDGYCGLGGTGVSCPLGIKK

[8] = biological target: Acyl-homoserine lactone acylase PvdQ (Pseudomonas aeruginosa (strain LESB58), UniProt Q9I194); test: PvdQ acylase enzyme activity blockers – biochemical, fluorescence, plate reader and imaging, cherry-picks, dose response (AID 493231)
Sequence of Acyl-homoserine lactone acylase PvdQ (Q9I194 24-193 limits assumed): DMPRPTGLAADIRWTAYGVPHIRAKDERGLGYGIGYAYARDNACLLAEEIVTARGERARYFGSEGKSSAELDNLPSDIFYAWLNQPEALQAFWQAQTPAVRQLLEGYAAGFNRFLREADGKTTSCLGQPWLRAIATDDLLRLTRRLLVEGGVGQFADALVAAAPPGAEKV
Sequence of Acyl-homoserine lactone acylase PvdQ (Q9I194 217-762 limits assumed): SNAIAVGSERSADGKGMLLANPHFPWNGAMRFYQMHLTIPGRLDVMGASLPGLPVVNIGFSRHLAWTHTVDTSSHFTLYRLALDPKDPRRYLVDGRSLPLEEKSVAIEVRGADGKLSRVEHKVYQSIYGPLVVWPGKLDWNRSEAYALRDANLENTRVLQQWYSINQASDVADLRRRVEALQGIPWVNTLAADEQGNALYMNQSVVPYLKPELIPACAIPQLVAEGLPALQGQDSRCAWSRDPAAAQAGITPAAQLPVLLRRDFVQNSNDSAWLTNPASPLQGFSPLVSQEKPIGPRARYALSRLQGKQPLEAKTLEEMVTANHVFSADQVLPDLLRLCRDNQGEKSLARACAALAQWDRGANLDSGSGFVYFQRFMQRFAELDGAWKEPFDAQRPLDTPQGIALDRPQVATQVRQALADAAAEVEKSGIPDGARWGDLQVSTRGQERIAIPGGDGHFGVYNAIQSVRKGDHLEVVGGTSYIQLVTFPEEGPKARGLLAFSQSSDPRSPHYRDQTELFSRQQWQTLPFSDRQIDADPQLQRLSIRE

[9] = biological target: Protein Rev (Human immunodeficiency virus type 1 group M subtype B (isolate HXB2)(HIV-1), UniProt P04618); test: blockers of HIV Rev/RRE RNA complex – biochemical, fluorescence polarization, HIV-1, dose response (AID 434976); set-up: species or system Human immunodeficiency virus 1
Sequence of Protein Rev (P04618 whole entry): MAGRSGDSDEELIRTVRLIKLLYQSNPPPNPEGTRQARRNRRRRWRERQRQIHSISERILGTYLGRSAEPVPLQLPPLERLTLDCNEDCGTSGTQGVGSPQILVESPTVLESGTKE

[10] = biological target: Female germline-specific tumor suppressor gld-1 (Caenorhabditis elegans, UniProt Q17339); test: blockers of GLD-1/TGE RNA complex formation – biochemical, fluorescence polarization, C. elegans, dose response (AID 2802);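 note: fluorescence polarization of labeled TGE RNA bound by purified gld-1 protein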
Sequence of Female germline-specific tumor suppressor gld-1 (Q17339 whole entry): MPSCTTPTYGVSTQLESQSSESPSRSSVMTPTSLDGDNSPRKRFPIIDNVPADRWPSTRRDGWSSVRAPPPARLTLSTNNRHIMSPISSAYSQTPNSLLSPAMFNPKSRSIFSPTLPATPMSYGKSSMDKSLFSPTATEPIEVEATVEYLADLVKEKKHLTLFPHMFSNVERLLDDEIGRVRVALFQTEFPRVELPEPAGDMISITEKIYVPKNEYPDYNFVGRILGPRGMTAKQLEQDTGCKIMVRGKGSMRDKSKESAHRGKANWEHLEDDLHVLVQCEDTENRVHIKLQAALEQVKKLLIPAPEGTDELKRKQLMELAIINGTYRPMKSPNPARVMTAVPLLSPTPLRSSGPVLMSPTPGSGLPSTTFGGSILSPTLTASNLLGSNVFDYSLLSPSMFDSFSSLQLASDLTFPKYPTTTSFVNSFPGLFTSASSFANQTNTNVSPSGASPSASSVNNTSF

[11] = biological target: T1, Polyadenylate-binding protein 1 (Homo sapiens, UniProt P11940); test: MLLE binding blockers, Cy5 peptide tracer – biochemical, fluorescence polarization, Cy5-PAM2 peptide, secondary, miRNA deadenylation inhibitor project, dose response (AID 602260); format: functional; settings: read-out: IC50_Mean
T1 sequence (P11940 whole entry, the tested form may be a part): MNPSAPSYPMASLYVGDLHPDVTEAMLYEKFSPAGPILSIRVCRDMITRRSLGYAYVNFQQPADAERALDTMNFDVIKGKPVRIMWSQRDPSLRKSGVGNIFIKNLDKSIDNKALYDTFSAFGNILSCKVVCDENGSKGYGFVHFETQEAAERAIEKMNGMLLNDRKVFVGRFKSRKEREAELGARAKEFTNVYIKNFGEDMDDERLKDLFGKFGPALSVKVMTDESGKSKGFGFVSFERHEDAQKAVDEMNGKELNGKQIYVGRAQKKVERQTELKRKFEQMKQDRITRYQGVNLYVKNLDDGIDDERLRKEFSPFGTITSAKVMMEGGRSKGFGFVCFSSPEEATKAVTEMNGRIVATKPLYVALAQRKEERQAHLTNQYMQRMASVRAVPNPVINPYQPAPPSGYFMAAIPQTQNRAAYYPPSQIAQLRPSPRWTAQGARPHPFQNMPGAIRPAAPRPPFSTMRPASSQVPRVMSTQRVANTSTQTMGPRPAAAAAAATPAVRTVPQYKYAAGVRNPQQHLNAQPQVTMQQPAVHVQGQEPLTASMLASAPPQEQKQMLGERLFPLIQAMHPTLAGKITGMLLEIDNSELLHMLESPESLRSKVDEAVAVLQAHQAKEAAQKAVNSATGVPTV

[12] = biological target: T1, Polyadenylate-binding protein 1; test: MLLE domain peptide-binding blockers, IC50 – biochemical, fluorescence polarization, FITC-PAM2 peptide, dose response (AID 602259); format: functional; settings: read-out: IC50_Mean
[13] = biological target: T2, Corticotropin-releasing factor receptor 2/Corticotropin-releasing factor-binding protein (Homo sapiens, UniProt P24387+Q13324); test: activators of CRF receptor 2 with binding protein – uHTS hits, confirmation (AID 602473); format: functional; settings: read-out: EC50_Mean
T2 sequence (Q13324 whole entry): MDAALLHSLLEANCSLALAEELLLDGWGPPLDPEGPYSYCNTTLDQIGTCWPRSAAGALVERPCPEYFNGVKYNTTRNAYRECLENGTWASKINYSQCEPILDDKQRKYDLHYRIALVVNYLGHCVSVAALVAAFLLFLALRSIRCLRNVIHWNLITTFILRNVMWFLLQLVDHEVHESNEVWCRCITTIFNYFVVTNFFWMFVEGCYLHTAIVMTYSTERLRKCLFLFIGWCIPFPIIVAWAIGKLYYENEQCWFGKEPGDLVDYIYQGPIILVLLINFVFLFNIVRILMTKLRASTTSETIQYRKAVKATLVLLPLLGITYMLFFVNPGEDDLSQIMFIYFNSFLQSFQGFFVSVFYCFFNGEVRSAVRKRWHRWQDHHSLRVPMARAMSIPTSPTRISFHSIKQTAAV
T2 sequence (P24387 whole entry): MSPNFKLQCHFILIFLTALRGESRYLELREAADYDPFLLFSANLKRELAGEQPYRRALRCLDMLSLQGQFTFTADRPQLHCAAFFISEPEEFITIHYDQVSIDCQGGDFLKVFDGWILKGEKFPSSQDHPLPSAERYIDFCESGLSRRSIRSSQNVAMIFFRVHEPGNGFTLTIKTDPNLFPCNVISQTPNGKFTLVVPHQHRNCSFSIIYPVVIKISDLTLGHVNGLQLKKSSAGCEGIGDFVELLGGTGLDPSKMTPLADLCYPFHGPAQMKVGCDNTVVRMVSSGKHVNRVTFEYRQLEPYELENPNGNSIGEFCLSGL

[14] = biological target: T3, Sentrin-specific protease 1 (Homo sapiens, UniProt Q9P0U3); test: SENP1 catalytic domain blockers, concentration series – biochemical, kinetic FRET, dose response (AID 651697); format: functional; settings: read-out: IC50_Mean
T3 sequence (Q9P0U3 whole entry): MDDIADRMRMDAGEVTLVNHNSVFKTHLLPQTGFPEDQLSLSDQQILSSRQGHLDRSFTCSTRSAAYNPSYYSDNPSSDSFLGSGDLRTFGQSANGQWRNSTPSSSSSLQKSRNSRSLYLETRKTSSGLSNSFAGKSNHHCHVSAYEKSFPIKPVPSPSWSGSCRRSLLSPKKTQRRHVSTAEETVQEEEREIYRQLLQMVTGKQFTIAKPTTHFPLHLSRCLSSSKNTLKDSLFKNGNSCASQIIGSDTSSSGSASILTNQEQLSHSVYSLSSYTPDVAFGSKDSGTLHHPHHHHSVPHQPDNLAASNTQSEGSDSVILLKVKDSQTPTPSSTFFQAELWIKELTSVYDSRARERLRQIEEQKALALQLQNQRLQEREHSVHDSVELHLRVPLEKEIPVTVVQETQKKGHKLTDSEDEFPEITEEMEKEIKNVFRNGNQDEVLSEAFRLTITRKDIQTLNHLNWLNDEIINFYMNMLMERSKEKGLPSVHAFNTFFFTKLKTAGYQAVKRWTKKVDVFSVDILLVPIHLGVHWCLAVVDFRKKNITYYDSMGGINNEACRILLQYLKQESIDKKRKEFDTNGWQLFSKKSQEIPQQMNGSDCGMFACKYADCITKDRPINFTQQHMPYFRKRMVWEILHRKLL

[15] = biological target: T3, Sentrin-specific protease 1; test: Dose response confirmation of small molecule inhibitors of the catalytic domain of the SUMO protease, SENP1 in a FRET assay.; format: functional; settings: read-out: IC50_Mean
[16] = test system: HEK293; test: PMA/Ionomycin induced NF-kB luciferase assay in 293- NF-kB-Luc stable cells. [Related pubchem assays: 1299, 1270, 1295, 1375, 1287, 1281, 1293, 1291, 1289, 1280, 465, 1364, 1282, 1372, 1365, 1370, 1367, 1366, 1269, 1373, 1292, 1290, 1302, 1371, 1283, 1271, 1294, 1374, 1368, 1369 ]; format: functional, cell-based; settings: Homo sapiens
[17] = biological target: Luciferin 4-monooxygenase (Photinus pyralis, UniProt P08659); test: In vitro luciferase assay using purified luciferase. [Related pubchem assays: 1299, 1270, 1295, 1375, 1287, 1281, 1293, 1291, 1289, 1280, 465, 1364, 1282, 1372, 1365, 1370, 1367, 1366, 1266, 1373, 1292, 1290, 1302, 1371, 1283, 1271, 1294, 1374, 1368, 1369 ]
[18] = test system: HEK293; test: Cytotoxicity assay in HEK293 cells. [Related pubchem assays (depositor defined):AID1266, AID1269, AID1270, AID1271, AID1280, AID1281, AID1282, AID1283, AID1287, AID1289, AID1290, AID1291, AID1292, AID1293, AID1294, AID1295, AID1299, AID1302, AID1364, AID1365, AID1366, AID1367, AID1369, AID1370, AID1371, AID1372, AID1373, AID1374, AID1375, AID1384 …; format: functional, cell-based; settings: Homo sapiens
[19] = test system: HEK293; test: TNF Induced NF-kB Luciferase in 293-NF-kB-Luc Stable Cells. [Related pubchem assays: 1266, 1299, 1269, 1373, 1292, 1290, 1302, 1371, 1283, 1270, 1295, 1271, 1375, 1294, 1374, 1281, 1293, 1291, 1289, 1280, 465, 1368, 1364, 1282, 1372, 1365, 1369, 1370, 1367, 1366 ]; format: functional, cell-based; settings: Homo sapiens
[20] = biological target: Photoreceptor-specific nuclear receptor (Homo sapiens, UniProt Q9Y5X4); format: functional, cell-based;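 note: CHO-S cells with Gal4-NCOR and VP16-NR2E3 two-hybrid luciferase reporter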
Sequence of Photoreceptor-specific nuclear receptor (Q9Y5X4 whole entry, the tested form may be a part): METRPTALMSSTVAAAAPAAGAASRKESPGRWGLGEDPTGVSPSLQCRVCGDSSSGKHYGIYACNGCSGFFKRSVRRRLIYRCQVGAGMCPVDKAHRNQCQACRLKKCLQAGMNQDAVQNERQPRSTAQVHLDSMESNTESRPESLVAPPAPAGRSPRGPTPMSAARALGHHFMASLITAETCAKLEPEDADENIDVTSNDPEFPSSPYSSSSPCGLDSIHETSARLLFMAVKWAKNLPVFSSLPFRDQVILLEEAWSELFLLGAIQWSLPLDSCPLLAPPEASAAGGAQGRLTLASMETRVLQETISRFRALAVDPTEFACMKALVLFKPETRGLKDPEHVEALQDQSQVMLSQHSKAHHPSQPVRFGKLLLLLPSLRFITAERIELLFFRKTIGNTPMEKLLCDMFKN

[21] = A549 cell cytotoxicity, dose response, cytotoxicity control, plate reader, cherry-pick, antagonist series (AID 743412); format: functional, cell-based
[22] = toxicity toward HepG2 liver cells – cell-based, plate reader, cherry-pick, antagonist series, cytotoxicity control, dose response (AID 743416); format: functional
[23] = blockers of bursicon-stimulated LGR2 cAMP reporter – cell-based, HEK293, CRE-luciferase reporter, cherry pick, set 2, dose response (AID 743343); format: functional;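 note: transfected cells were stimulated with diluted bursicon conditioned medium after compound addition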
[24] = blockade of melanocortin 4 receptor signaling – cell-based, plate reader, cherry pick, counter-screen for LGR2 antagonist project, dose response (AID 743444); format: functional;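 note: transfected HEK 293 cells stimulated with alpha-MSH peptide; potency of inhibitors of the alpha-MSH evoked signal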
[25] = viability loss in HEK293 cells – cell-based, plate reader, cherry-picked samples, cytotoxicity control, dose response (AID 743446); format: functional
[26] = biological target: Melanin-concentrating hormone receptor 1 (Homo sapiens, UniProt Q99705); test: Late-stage fluorescence-based counterscreen for antagonists of the G-protein coupled receptor 7 (GPR7): cell-based dose response assay to identify antagonists of the melanin-concentrating hormone receptor 1 (MCHR1). [Related pubchem assays (depositor defined):AID1861, AID1880, AID1952, AID2148, AID2251, AID2257, AID485339]; format: functional;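 note: stimulated with 30 nM MCH peptide agonist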
[27] = biological target: T4, Neuropeptides B/W receptor type 1 (Homo sapiens, UniProt P48145); test: human NPBW1 receptor blockade, IC50 – cell-based, fluorescence, dose response, late-stage follow-up (AID 463251); format: functional
T4 sequence (P48145 whole entry): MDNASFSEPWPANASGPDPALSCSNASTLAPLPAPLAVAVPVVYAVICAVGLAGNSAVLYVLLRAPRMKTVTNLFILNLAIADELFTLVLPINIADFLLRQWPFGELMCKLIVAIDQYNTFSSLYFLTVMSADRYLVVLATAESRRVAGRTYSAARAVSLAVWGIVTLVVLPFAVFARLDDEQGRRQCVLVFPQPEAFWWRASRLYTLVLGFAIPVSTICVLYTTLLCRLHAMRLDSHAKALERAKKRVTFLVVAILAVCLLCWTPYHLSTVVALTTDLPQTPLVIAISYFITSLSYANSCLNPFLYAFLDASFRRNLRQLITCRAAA

[28] = biological target: Neuropeptide Y receptor type 2 (Homo sapiens, UniProt P49146); test: Fluorescence-based counterscreen for agonists of NPY-Y1: cell-based high-throughput dose response assay for agonists of NPY-Y2.; format: functional
Sequence of Neuropeptide Y receptor type 2 (P49146 whole entry): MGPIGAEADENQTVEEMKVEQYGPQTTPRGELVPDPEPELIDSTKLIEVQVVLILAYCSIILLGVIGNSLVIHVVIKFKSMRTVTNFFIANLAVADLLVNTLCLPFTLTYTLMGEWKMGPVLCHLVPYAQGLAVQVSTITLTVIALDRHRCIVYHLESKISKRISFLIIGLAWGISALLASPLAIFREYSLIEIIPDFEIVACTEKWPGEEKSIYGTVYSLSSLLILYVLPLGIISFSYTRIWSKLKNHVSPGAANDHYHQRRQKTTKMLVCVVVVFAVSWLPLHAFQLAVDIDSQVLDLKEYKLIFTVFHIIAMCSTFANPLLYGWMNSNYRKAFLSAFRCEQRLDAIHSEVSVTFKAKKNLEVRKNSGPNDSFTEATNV

[29] = test system: HEK293; test: Fluorescence-based counterscreen for potentiators or agonists of NPY-Y1: cell-based high-throughput dose response assay for inhibitors of cyclic nucleotide gated ion channel (CNGC) activity. In this assay, the parental HEK293 cell line transfected with a cyclic-nucleotide gated ion channel (CNGC)-based cAMP sensor is used to measure inhibition of isoproterenol-induced CNGC …; format: functional; settings: Homo sapiens
[30] = biological target: Neuropeptide Y receptor type 1 (Homo sapiens, UniProt P25929); test: Fluorescence-based dose response cell-based high-throughput screening assay for agonists of NPY-Y1. [Related pubchem assays: 1697 (Screening assay (NPY-Y1 agonists).), 1359 (Screening assay (NPY-Y2 potentiators or agonists).), 1304 (Screening assay (NPY-Y1 potentiators or agonists).), 1704 (Screening assay (CNGC inhibitors).), 1791 (Summary AID.)]; format: functional
Sequence of Neuropeptide Y receptor type 1 (P25929 whole entry): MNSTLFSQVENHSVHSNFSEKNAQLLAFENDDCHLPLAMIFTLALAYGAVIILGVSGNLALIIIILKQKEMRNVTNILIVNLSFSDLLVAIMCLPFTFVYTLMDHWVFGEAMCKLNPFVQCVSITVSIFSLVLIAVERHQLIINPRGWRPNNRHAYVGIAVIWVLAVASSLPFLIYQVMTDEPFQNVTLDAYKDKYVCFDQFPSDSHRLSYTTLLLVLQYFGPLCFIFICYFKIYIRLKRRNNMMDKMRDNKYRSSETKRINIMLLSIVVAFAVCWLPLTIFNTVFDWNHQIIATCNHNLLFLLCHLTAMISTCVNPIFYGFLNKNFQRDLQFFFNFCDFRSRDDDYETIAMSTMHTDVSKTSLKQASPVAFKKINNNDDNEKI

[31] = biological target: T5, Alkaline phosphatase, tissue-nonspecific isozyme (Homo sapiens, UniProt P05186)
T5 sequence (P05186 whole entry): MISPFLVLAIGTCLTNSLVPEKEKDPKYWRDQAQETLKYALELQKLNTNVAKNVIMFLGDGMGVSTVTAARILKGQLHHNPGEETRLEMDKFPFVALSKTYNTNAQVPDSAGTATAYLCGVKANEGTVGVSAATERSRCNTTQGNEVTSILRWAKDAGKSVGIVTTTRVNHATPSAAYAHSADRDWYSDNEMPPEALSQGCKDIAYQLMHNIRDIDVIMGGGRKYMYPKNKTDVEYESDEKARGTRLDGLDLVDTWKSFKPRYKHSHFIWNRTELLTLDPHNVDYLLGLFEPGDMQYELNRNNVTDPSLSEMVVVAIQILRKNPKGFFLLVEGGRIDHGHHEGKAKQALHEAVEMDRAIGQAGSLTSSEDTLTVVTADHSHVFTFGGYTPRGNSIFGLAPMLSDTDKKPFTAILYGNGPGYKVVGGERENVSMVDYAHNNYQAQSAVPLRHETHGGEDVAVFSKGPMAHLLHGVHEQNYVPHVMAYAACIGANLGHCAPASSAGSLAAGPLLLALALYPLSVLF

Sequence of Transitional endoplasmic reticulum ATPase (Homo sapiens, UniProt P55072, C522A) (P55072 2-806 C522A limits assumed): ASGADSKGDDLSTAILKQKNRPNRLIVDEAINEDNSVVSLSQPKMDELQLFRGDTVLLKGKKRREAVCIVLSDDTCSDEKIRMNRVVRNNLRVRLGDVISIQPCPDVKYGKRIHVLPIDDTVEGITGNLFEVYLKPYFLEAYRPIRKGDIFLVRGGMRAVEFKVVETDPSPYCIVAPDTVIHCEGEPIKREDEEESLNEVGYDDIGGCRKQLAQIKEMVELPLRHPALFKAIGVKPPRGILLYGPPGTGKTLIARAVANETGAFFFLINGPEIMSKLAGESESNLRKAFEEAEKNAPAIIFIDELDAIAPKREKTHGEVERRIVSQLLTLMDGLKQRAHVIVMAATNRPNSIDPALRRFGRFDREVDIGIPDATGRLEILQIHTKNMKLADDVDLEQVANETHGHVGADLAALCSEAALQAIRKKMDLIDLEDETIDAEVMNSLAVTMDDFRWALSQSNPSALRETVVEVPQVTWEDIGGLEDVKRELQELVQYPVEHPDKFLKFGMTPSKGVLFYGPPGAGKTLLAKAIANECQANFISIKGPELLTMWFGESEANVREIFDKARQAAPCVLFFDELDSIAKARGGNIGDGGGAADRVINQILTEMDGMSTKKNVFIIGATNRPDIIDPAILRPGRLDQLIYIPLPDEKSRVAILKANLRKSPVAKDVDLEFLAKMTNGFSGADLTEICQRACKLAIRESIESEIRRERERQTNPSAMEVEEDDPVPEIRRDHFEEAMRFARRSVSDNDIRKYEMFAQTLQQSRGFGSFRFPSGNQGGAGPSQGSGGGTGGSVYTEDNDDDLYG

## O=C(OCC(=O)c1c[nH]c2ccccc12)c1ccc([N+](=O)[O-])s1
[1]
  IC50: > 50 µM (not active)
[2]
  EC50: 1.04 µM (active)
[3]
  EC50: > 60 µM (not active)
[4]
  IC50: > 50 µM (not active)
[5]
  IC50: 1.62 µM (active)
[6]
  AC50: 3.8 µM (active)
[7]
  EC50: 36.4 µM (inactive)

## Clc1cccc(CNCCCSc2ncccn2)c1
[8]
  AC50: 6.84 µM (active)

## O=C1C2=C(SCCS2)C(=O)N1CCCO
[9]
  IC50: > 75.4 µM (not active)
[10]
  IC50: 4.07 µM (active)
[11]
  IC50: > 66 µM (inactive)
[12]
  IC50: 28 µM (inactive)
[13]
  EC50: > 53 µM (inactive)
[14]
  IC50: 20.5 µM (inactive)
[15]
  IC50: 35.2 µM (inactive)

## Clc1ccc(-n2ncc3c(N4CCCCCC4)ncnc32)cc1
[16]
  EC50: 2.77 µM (active)
[17]
  EC50: > 8 µM (not active)
[18]
  EC50: > 13.2 µM (inactive)
[19]
  EC50: 3.73 µM (active)
[20]
  IC50: 4.43 µM (active)
[21]
  AC50: > 52 µM (inactive)
[22]
  AC50: > 52 µM (inactive)
[23]
  AC50: < 0.068 µM (active)
[24]
  AC50: < 0.068 µM (active)
[25]
  AC50: > 52 µM (inactive)

## Cc1cccc(CN2CCCCC2C(=O)N2CCN(c3ccc([N+](=O)[O-])cc3)CC2)c1 (stereo unspecified)
[26]
  IC50: 6.1 µM (active)
[27]
  IC50: 10 µM (active)

## CC(C)(C)NC(=O)C(c1ccc(O)cc1)N(C(=O)Cn1nnc(-c2ccc(F)cc2)n1)c1ccccc1F (stereo unspecified)
[28]
  EC50: > 35.4 µM (not active)
[29]
  IC50: 16.8 µM (not active)
[30]
  EC50: > 35.4 µM (not active)

## Cc1c(Cl)c(C(=O)NNC(=S)Nc2ccccc2)nn1C
[31]
  EC50: 50.5 µM (not active)
